# Legend:
# [1] = tested on: human liver microsomes; assay: Oxidative metabolism in human liver microsomes; assay type: in vitro ADME; details: 40 :M, NADPH
# Description: Upon incubation of Compound (A) (40 :M) with mouse, rat, dog, and human liver microsomes fortified with nicotinamide adenine dinucleotide phosphate (NADPH), the rate of oxidative metabolism of Compound (A) was 2.1, 0.7, 1.2 and 1.3 nmol/min/mg protein, respectively. Moreover, the metabolite distribution was similar among all species (metabolite masses included several […] and M−2 compounds). Qualitatively, there appeared to be similar production of metabolites of Compound (A) after incubation with rat or human hepatocytes compared to microsomal incubations. Products similar to those arising from the chemical degradation of Compound (A) appeared to be the major products in the hepatocyte incubations.
# [2] = target: CYP2C9 (Homo sapiens, UniProt P11712); assay: Inhibition of recombinant human CYP2C9 (deethylation of 3-cyano-7-ethoxycoumarin); assay type: in vitro ADME; details: recombinant human CYP isoform
# CYP2C9, sequence (P11712 whole entry, canonical isoform): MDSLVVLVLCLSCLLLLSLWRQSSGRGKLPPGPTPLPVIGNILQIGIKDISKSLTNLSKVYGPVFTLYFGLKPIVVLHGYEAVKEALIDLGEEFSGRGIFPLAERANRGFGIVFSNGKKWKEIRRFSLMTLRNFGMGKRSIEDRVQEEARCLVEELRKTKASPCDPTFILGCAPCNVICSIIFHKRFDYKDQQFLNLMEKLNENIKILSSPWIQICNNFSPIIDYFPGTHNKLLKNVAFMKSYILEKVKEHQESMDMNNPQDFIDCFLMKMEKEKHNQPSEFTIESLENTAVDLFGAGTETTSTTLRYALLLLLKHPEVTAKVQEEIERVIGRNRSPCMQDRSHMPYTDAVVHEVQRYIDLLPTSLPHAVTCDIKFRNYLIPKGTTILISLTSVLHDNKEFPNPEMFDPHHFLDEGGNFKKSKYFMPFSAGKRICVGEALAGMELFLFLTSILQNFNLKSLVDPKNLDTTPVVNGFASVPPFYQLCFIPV
# Description: The ability of Compound (A) to inhibit the major human cytochrome P450s (CYPs) responsible for the metabolism of drugs was evaluated in vitro using recombinant human CYP isoforms. IC50 values for inhibition of deethylation of 3-cyano-7-ethoxycoumarin (CYP1A2, CYP2C9, CYP2C19, and CYP2D6) and for inhibition of dealkylation of benzoyl-resorufin (CYP3A4) were determined.
smiles,measurement,setting,value
"C/C(=C\c1csc(C)n1)[C@@H]1C[C@@H]2O[C@]2(C)CCC[C@H](C)[C@H](O)[C@@H](C)C(=O)C(C)(C)[C@@H](O)CC(=O)N1 (relative stereo) [Compound (A), [1S-[1R*,3R*(E),7R*,10S*,11R*,12R*,16S*]]-7,11-dihydroxy 8,8,10,12,16-pentamethyl-3-[1-methyl-2-(2-methyl-4-thiazolyl)ethenyl-4-aza-17-oxobicyclo[14.1.0]heptadecane-5,9-dione]",rate of oxidative metabolism,[1],1.3 nmol/min/mg protein
same,inhibition of CYP2C9,[2],did not inhibit
